Results published in patent US10555960B2, “Use of an aminoglycoside for nonsense mutation suppression and the treatment of disease” (PTC Therapeutics, Inc., priority 2015, dated 2020).
Where a name gives a salt, the structure may show the parent alone. Read-outs that look alike come from different tables or passages of the source.

Tested on: premature stop codon
Test: Premature stop codon readthrough (nonsense suppression), full length protein production by enzyme-linked immunosorbent assay
Assay type: cell-based
Procedure: Table 1 also provides the median maximum fold increase of the full length protein production over DMSO-treated samples as also determined by enzyme-linked immunosorbent assay within the concentration range tested (up to 1 mM).

[1] = median, enzyme-linked immunosorbent assay, concentration range tested up to 1 mM
[2] = median, enzyme-linked immunosorbent assay, within concentration range tested (up to 1 mM)

Compound | EC2X (median concentration that doubles the intensity of the nonsense suppression) [1] | Max Fold over DMSO (median maximum fold increase of full length protein production over DMSO-treated samples) [2] | EC2X (median concentration that doubles the intensity of the nonsense suppression) | Max Fold over DMSO (median maximum fold increase of full length protein production over DMSO-treated samples)
CN[C@@H]1[C@@H](O)[C@@H](O[C@@H]2[C@@H](O)[C@H](O[C@H]3O[C@H](CO)[C@@H](O)[C@H](O)[C@H]3N)[C@@H](N)C[C@H]2N)OC[C@]1(C)O [Compound 1 sulfate, (2R,3S,4R,5R,6S)-5-amino-6-(((1R,2S,3S,4R,6S)-4,6-diamino-3-(((2R,3R,4R,5R)-3,5-dihydroxy-5-methyl-4-(methylamino)tetrahydro-2H-pyran-2-yl)oxy)-2-hydroxycyclohexyl)oxy)-2-(hydroxymethyl)tetrahydro-2H-pyran-3,4-diol] | 19 µM | 47 |  | 
CN[C@@H]1[C@@H](O)[C@@H](O[C@@H]2[C@@H](O)[C@H](O[C@H]3O[C@H](CO)[C@@H](O)[C@H](O)[C@H]3N)[C@@H](N)C[C@H]2N)OC[C@H]1O [Gentamicin A sulfate] | 566 µM | 4.1 |  | 
CN[C@@H]1[C@@H](O)[C@@H](O[C@@H]2[C@@H](O)[C@H](O[C@H]3O[C@H]([C@@H](C)NC)CC[C@H]3N)[C@@H](N)C[C@H]2N)OC[C@]1(C)O.O=S(=O)(O)O [Gentamicin C1 sulfate] | 100 µM | 3.7 |  | 
CN[C@@H]1[C@@H](O)[C@@H](O[C@@H]2[C@@H](O)[C@H](O[C@H]3O[C@H]([C@@H](C)N)CC[C@H]3N)[C@@H](N)C[C@H]2N)OC[C@]1(C)O [Gentamicin C2 sulfate] | 95 µM | 5.5 |  | 
CN[C@@H]1[C@@H](O)[C@@H](O[C@@H]2[C@@H](O)[C@H](O[C@H]3O[C@H]([C@H](C)N)CC[C@H]3N)[C@@H](N)C[C@H]2N)OC[C@]1(C)O.O=S(=O)(O)O [Gentamicin C2a sulfate] | 260 µM | 3.1 |  | 
Gentamicin C1a sulfate |  |  | 135 µM | 2.6
